Laboratory results published in patent US20050148514A1, “Method and composition for treatment of angiogenesis” (priority 2003, published 2005).
“Also recorded” adds a separate entry of the source. Where no end group is shown, it is not given here.

Legend:
[1] = biological target: T1, VEGFR-2 (Homo sapiens, UniProt P35968); assay: VEGF-induced VEGFR-2 phosphorylation in HUVEC (immunoprecipitation, western blot); type: cell-based
T1 construct: host or cells: HUVEC
Method: (§1) Cell culture. Human umbilical vein endothelial cells (HUVEC) and pulmonary aortic smooth muscle cells (PASMC) were obtained from Clonetics and maintained in endothelial cell basal medium-2, (EBM-2; Clonetics) and smooth muscle medium-2 (SmGM-2; Clonetics), respectively. Cells were cultured at 37° C. under a humidified atmosphere containing 5% CO2. For experimental purposes, cells were plated in 8 100-mm plastic dishes at 5,000 cells/cm^2 and were grown to confluence before overnight serum starvation. Cells were treated with vehicle or with a PCK3145 derivative diluted in 0.1 N NaOH, and stimulated with 50 ng/ml VEGF, PDGF or with 1 μM S1P.
Immunoprecipitation and immunoblotting procedures. After treatment, cells were washed once with phosphate-buffered saline (PBS) containing 1 mM sodium orthovanadate and were incubated in the same medium for 1 h at 4° C. The cells were solubilized on ice in lysis buffer (150 mM NaCl, 10 mM Tris-HCl, pH 7.4, 1 mM EDTA, 1 mM EGTA, 0.5% Nonidet P-40, 1% Triton X-100) containing 1 mM sodium orthovanadate. The cells were then scraped from the culture dishes and the resulting lysates were clarified by centrifugation at 10,000 g for 10 min. Protein concentrations were determined using the micro bicinchoninic acid method. For immunoprecipitation studies, lysates were clarified by a 1 h incubation at 4° C. with a mixture of Protein A/Protein G Sepharose beads. After removal of the Sepharose beads by low-speed centrifugation, identical amounts of protein (200 μg) from each sample were transferred to fresh tubes and incubated in lysis buffer overnight at 4° C. in the presence of 2 μg/ml of specific antibodies. […]
The multifunctionality of VEGF at the cellular level results from its ability to initiate a diverse, complex and integrated network of signaling pathways via its major receptor, VEGFR-2. […] After each treatment, equal amounts of protein were immunoprecipitated with anti-VEGFR-2 polyclonal antibodies and analysed by Western blotting.

[2] = system: NFkB pathway; assay: SEAP gene-reporter assay in U-87 glioma cells, NFkB element; type: cell-based; settings: alkaline phosphatase activity in extracellular media
Method: (§2) In order to investigate the potential intracellular pathways triggered by the PCK3145 derivative, a gene-reporter assay using the SEAP (Secreted Alkaline Phosphatase) Mercury Profiling Kit (CLONTECH) was performed in glioma cells (U-87). This assay enables the monitoring of transcription factors that are triggered by a particular experimental condition by assaying the alkaline phosphatase activity in the extracellular media. […] The induction of the MAPK pathway by the PCK3145 derivative is further confirmed by the rapid and transient induction of ERK phosphorylation between 5-10 minutes (FIG. 8B) and is shown to be dose-dependent (FIG. 8C). Finally, the effects of the PCK3145 derivative were also compared to those of a scrambled peptide.

[3] = system: ERK; assay: Intrinsic effect on ERK phosphorylation (western blot); type: cell-based
Method: as §2

[4] = system: ERK; assay: Growth factor-induced ERK phosphorylation in HUVEC (western blot); type: cell-based, Human
Method: as §1
Immunoprecipitation and immunoblotting procedures. After treatment, cells were washed once with phosphate-buffered saline (PBS) containing 1 mM sodium orthovanadate and were incubated in the same medium for 1 h at 4° C. The cells were solubilized on ice in lysis buffer (150 mM NaCl, 10 mM Tris-HCl, pH 7.4, 1 mM EDTA, 1 mM EGTA, 0.5% Nonidet P-40, 1% Triton X-100) containing 1 mM sodium orthovanadate. The cells were then scraped from the culture dishes and the resulting lysates were clarified by centrifugation at 10,000 g for 10 min. Protein concentrations were determined using the micro bicinchoninic acid method. For immunoprecipitation studies, lysates were clarified by a 1 h incubation at 4° C. with a mixture of Protein A/Protein G Sepharose beads. After removal of the Sepharose beads by low-speed centrifugation, identical amounts of protein (200 μg) from each sample were transferred to fresh tubes and incubated in lysis buffer overnight at 4° C. in the presence of 2 μg/ml of specific antibodies. Immunocomplexes were collected by incubating the mixture with 25 μl (50% suspension) of Protein A—(rabbit primary antibody) or Protein G—(mouse primary antibody) Sepharose beads, for 2 h. Nonspecifically-bound material was removed by washing the beads three times in 1 ml of lysis buffer containing 1 mM sodium orthovanadate, and bound material was solubilized in 25 μl of two-fold concentrated Laemmli sample buffer, boiled 5 min, and resolved by SDS-PAGE. The proteins were transferred onto polyvinylidene difluoride (PVDF) membranes, blocked 1 h at room temperature with Tris-buffered saline/Tween 20 (147 mM NaCl, 20 mM Tris/HCl, pH 7.5, and 0.1% Tween 20) containing 2% bovine serum albumin and incubated overnight at 4° C. with primary antibody.
VEGF is a strong activator of ERKs (Extracellular-signal-Regulated protein Kinases) 1 and 2 via VEGF receptor 2. In order to test the ability of the PCK3145 derivative in potentially antagonizing VEGF-mediated ERK phosphorylation, serum-starved quiescent endothelial cells (HUVEC) were incubated with vehicle (phosphate-buffered saline (PBS) pH 7.4) or PCK3145 derivative (300 μg/ml) for 24 h and then stimulated with VEGF, bFGF (basic Fibroblast Growth Factor) or S1P (sphingosine-1-phosphate). Cells were washed with PBS containing NaF/Na3VO4 and incubated in the same medium buffer for 1 h at 4° C. The cells were scraped from the culture dishes and the resulting lysates clarified by centrifugation. Western blotting and immunodetection using anti-phosphoERK and anti-ERK antibodies was then performed.

T1 sequence (P35968 20-1356): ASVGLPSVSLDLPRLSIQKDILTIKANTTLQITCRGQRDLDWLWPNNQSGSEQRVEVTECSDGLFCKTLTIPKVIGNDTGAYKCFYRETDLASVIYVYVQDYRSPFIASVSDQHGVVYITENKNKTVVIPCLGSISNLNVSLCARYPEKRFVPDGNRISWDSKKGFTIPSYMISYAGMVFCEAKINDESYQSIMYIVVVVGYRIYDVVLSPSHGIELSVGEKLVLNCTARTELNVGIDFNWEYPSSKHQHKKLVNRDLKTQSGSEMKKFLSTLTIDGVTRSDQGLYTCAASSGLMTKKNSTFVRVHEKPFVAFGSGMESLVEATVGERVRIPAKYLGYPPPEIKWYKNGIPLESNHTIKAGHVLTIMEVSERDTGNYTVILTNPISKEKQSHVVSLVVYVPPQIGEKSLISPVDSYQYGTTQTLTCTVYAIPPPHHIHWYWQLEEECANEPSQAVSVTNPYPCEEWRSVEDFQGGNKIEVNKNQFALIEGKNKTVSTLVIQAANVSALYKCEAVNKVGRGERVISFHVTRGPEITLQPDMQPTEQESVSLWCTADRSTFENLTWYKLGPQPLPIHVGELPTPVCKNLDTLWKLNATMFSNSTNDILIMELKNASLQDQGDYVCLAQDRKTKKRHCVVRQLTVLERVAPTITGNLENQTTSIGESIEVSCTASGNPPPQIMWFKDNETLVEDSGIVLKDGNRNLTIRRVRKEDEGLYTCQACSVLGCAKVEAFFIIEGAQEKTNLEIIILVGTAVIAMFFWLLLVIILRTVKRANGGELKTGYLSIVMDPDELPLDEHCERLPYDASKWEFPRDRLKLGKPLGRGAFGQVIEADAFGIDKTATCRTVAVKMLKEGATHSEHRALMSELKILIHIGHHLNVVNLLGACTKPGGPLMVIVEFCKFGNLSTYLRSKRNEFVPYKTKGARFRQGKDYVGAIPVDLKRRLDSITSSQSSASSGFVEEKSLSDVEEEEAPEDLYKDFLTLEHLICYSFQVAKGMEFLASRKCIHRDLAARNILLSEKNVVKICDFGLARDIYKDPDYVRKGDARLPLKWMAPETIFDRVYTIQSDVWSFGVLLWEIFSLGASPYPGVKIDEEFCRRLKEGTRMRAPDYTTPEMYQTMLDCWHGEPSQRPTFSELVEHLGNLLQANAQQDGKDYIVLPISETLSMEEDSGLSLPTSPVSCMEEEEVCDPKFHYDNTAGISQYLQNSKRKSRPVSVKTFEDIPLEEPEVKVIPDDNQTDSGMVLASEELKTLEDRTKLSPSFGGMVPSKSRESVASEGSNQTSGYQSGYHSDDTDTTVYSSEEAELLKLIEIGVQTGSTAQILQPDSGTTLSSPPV

EWQTDNCETCTCYET (cysteine pairing not given here)
dose dependence of inhibition of VEGF-induced VEGFR-2 phosphorylation ([1]; HUVEC): dose-dependent | phosphorylation of VEGFR-2 induced by VEGF ([1]; serum-starved HUVEC, 300 μg/ml, 24 h): inhibited | SEAP reporter, NFkB pathway [2]: triggers significantly | dose dependence of induction of ERK phosphorylation ([3]; dose-response): dose-dependent | time of rapid and transient induction of ERK phosphorylation ([3]; time-course, no growth factor): 5 to 10 min | time-course of effect on VEGF-induced ERK phosphorylation ([4]; HUVEC, 3 and 24 hrs): necessity of a long term action | total amount of ERK ([4]; HUVEC, each sample of cells): unaffected | dose-response of ERK phosphorylation by VEGF ([4]; HUVEC, increasing doses): gradually inhibit | ERK phosphorylation induced by VEGF ([4]; serum-starved HUVEC, 300 μg/ml for 24 h, then VEGF): specific inhibitory effect; also recorded: comparable to that of PD98059 | ERK phosphorylation induced by bFGF ([4]; serum-starved HUVEC, 300 μg/ml for 24 h, then bFGF): not that induced by bFGF
